Experiment: gradient 5% acetonitrile 3 min, to 50% in 2 min, to 85% in 15 min, held 3 min, 100 µL/min
Conditions: column: Zorbax Extend-C18 2.1 x 50 mm; eluents: water / acetonitrile, 0.1% formic acid
Procedure, shortened: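 A Zorbax Extend-C18 column (2.1 × 50 mm, 1.8 μm) run at 100 μL/min with water and acetonitrile, both containing 0.1% formic acid, separated mixtures of ~100 pure standards. The HPLC was coupled to a quadrupole time-of-flight mass spectrometer operated in positive and negative ionization mode, with dead and dwell volumes of 40 μL and 900 μL. Each retention time was taken from a computationally picked adduct peak that was then manually inspected.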

RP-LC retention time [s]	SMILES
622	CCn1ccc(C(=O)N2CC[C@H]3N(CCOC)S(=O)(=O)CC[C@]3(C(=O)N3CCOCC3)C2)n1
1290	CCn1c(C(=O)NC2CCCCCC2)cc2sc(Cl)cc21
654	Cc1ccc(C)c(CNC(=O)C2CCN(c3cncnc3N3CCOCC3)CC2)c1
645	COc1ccc(CCc2nc3nccc(-c4ccncc4)n3n2)cc1OC
675	CN(C)c1nc2ncn3c(=O)n(CC(=O)NCc4ccc(F)cc4)nc3c2s1
845	CC1Oc2ccccc2N(CC(=O)N2CCCN(c3cc(=O)n(C(C)C)c(=O)n3C(C)C)CC2)C1=O (configuration not stated)
694	COc1ccc(N2CCN(C(=O)CN3C(=O)NC4(CCCCC4)C3=O)CC2)cc1
904	CCSc1nnc(NC(=O)CN(C)c2nc3c(Cl)cccc3s2)s1
742	Cc1ccc(CC(=O)NCc2c(C)noc2C)cc1
590	CC1CCCN(c2nc(C(=O)NC3CC3)cs2)C1 (configuration not stated)
799	CCc1ccccc1NC(=O)C1CCN(S(=O)(=O)c2cc(C(=O)N3CCCC3)cs2)CC1
739	CCN(CC)C(=O)c1ccc(-c2nc3cc(NS(=O)(=O)c4cc(C)ccc4C)ccc3n2C)cc1
755	COc1ccc(-c2nc3cnccn3c2Nc2ccc(C(=O)NC3CCCCC3)cc2)cc1OC
857	Cc1ccccc1NC(=O)Cn1c(C(F)(F)F)nc2cc3c(cc21)OCCO3
734	CCc1nncn1C1CCN(S(=O)(=O)c2ccc(F)c(Cl)c2)CC1
616	CC(C(=O)NC1CCSC1=O)n1nc(-n2cccn2)ccc1=O (configuration not stated)
1190	COc1cc(C(=O)Nc2nc(-c3ccc(C)cc3)c(C)s2)c(Br)c(OC)c1OC
747	CCOC(=O)C1=C(C)N(CC(=O)NCC2CCCO2)c2ncnn2C1c1ccccc1 (configuration not stated)

RP-LC retention time [s]	SMILES
1100	CC(O)Cn1cnc2c1c(=O)n(C)c(=O)n2C (configuration not stated)
807	CSc1cccc(NC(=O)C2CCCN(c3cnc4nc(C)c(C)nc4c3)C2)c1 (configuration not stated)
1270	CCCN1C(=O)COc2ccc(-c3csc(NC(=O)CCC4CCCCC4)n3)cc21
843	CC(=O)NNC(=O)N1Cc2ccccc2Oc2ccc(Cl)cc21
620	CCc1nccn1Cc1nc(-c2ccc(OC)cc2)no1
899	Cc1ccc2[nH]cc(CCN3CC(C(=O)Nc4ccc(F)c(Cl)c4)CC3=O)c2c1 (configuration not stated)
739	Cc1ccc(-c2ncccc2CNS(=O)(=O)Cc2cc(F)cc(F)c2)cc1
666	CCc1ccc(CNC(=O)CCC(=O)N2CCCn3nc(C)cc32)cc1
865	CCc1nc(-c2csc(S(=O)(=O)N3CCCC(C(=O)NC(C)C)C3)c2)no1 (configuration not stated)
596	CCOC(=O)c1c(C)c(CCC(=O)NCCN2CCN(C)CC2)n(C)c1C
764	CC1=C(c2ccc(C)c(C)c2)S(=O)(=O)N=C1N1CCCN(C(=O)c2ccoc2)CC1
794	COc1ccc(NC(=O)N2CCc3cn(C)c4cccc(c34)C2)cc1OC
978	Cn1nccc1-c1cccc(-c2noc(C3CC(=O)N(c4cccc(Cl)c4)C3)n2)c1 (configuration not stated)
784	CNC(=O)Nc1ccc(OC)c(NC(=O)NC(=O)c2cc(F)c(F)cc2Cl)c1
792	CN(Cc1ccsc1)C(=O)NC1CCCC1
737	Cc1ccc(-c2cn3cccc(C)c3n2)cc1NS(=O)(=O)c1ccc(Br)cc1
657	O=C(O)c1nnn(-c2cccc(Cl)c2)c1-c1ccncc1
885	O=C(c1ccc(-c2ccc3c(c2)CCN3S(=O)(=O)c2ccccc2)cc1)N1CCOCC1

SMILES	RP-LC retention time [s]
O=C(NCCc1c[nH]c2ccccc12)c1cc2cccnc2n(Cc2ccc(F)cc2)c1=O	1090

— the METLIN SMRT retention time set (Domingo-Almenara et al. 2019)
